The record followed here is patent US11529343B2, “Compositions and methods for identifying and treating dystonia disorders” (DUKE UNIVERSITY, priority 2015, dated 2022).

Peptide text beside a SMILES is read from it. * marks the point of attachment. Cbz = O=C(OCc1ccccc1)*

In assay [1] the test system is striatal mGluR5 LTD. The assay can be described thus: Long-term depression in cortico-striatal synapse, brain slices of heterozygous DYT1 knockin mice. It counts as cell-based. The conditions noted are these: 20 μM, versus vehicle. How it is done: (§1) To directly test these predictions, whole-cell electrophysiology of striatal projection neurons was performed in acute brain slices to induce long-term depression in the presence of eIF2-alpha pathway-modulating drugs. Acute horizontal brain slices from the progeny of heterozygous ΔE Torsin1a knockin x homozygous Drd1a-tdTomato mice (age P15-21) were prepared largely as described in (Trusel et al., 2015, Cell Rep. 13, 1353-65). LTD was induced as in Trusel et al., 2015, with modifications.
(§2) Heterozygous delGAG Torsin1a knockin mice (courtesy of Dr. W. Dauer, University of Michigan) were crossed with homozygous Drd1a-tdTomato mice (Jackson Labs) and the progeny was used at postnatal day 15-21 for experiments. […]
(§3) Single slices were transferred to a recording chamber and superfused continuously with ACSF containing 50 μM picrotoxin at 32° C. and 3-4 mL/min. […] Evoked excitatory postsynaptic potentials (EPSPs) were recorded in the dorsolateral striatum, while stimulating every 30 seconds with a concentric bipolar electrode (FHC) in cortical layer V (see Trusel et al., Cell Reports, 2015). […] Baseline EPSPs were recorded for at least 10 min or until a stable baseline was reached. Data were acquired by pClamp v10 and analyzed using Clampfit v10.4, Origin v8.0, and GraphPad Prism v6.

The subject of another assay is WT Torsin1a localization. Put plainly: Torsin1a localization assay in WT Torsin1a-expressing assay cell line. It counts as cell-based, human. The conditions noted are these: for percentage of cells with punctate EGFP-Torsin1a signal, WT cell line: single concentration: MG132 10 μM, PBA 20 mM. The source says:
To develop an assay capable of detecting conditions that correct a dystonia cellular phenotype, two human cell lines were generated that stably expressed EGFP-tagged human wild-type Torsin 1A, or delta-E Torsin1a, from a single cDNA copy integrated at a defined genomic site (FIG. 1, panel 1).
To limit variation in expression levels associated with random integration or transient expression, single copies of either WT or delta-E human TOR1A cDNAs with N-terminal EGFP fusions were inserted at the FRT site in Flp-In™ T-Rex™ 293 cells (Thermo Fisher Scientific #R780-07) via flippase recombinase-mediated cassette exchange according to the manufacturer's recommended protocols. This system includes an inducible expression feature (TetON) that avoids selective pressure for potential toxic effects of chronic expression of mutant proteins (FIG. 1, panel 1).
Flp-In T-Rex 293 cells inducibly expressing either WT or delta-E Torsin1a were maintained in selective media [DMEM-HG (Thermo Fisher Scientific #11965)+1× GlutaMax (Thermo Fisher Scientific #35050-061)+75 μg/mL hygromycin (Thermo Fisher Scientific #10687-010)+15 μg/mL blasticidin S (Thermo Fisher Scientific #R210-01)+10% tetracycline screened FBS (Hyclone #SH30070.03T)+1% penicillin/streptomycin/amphotericin (Mediatech Inc. #30-004-C)]. The cells were maintained at 37° C./5% CO2. All experiments were performed on cells with fewer than 5 passages. HEK 293T cells (ATCC #CRL-3216) were maintained in HEK-T media [DMEM (Thermo Fisher #11995)+10% FBS (Hyclone #SH30070.03)+1× GlutaMAX+1% penicillin/streptomycin/amphotericin] at 37° C./5% CO2. Human dermal fibroblast lines were maintained in FGM media [MEM (Thermo Fisher #11095-080)+15% FBS (Hyclone #SH30070.03)+1% Non-Essential Amino Acids (Lonza #13-114E)+1% penicillin/streptomycin/amphotericin] at 37° C./5% CO2.
This approach provides control over expression levels, avoiding the wide variation typically seen with random genomic integration or transient expression approaches. […] The mutant phenotype was measured as the percentage of cells with one or more EGFP puncta using automated high-content imaging analysis (see infra).
Development and validation of the high-content image analysis and assay performance under high-throughput screening conditions is presented in FIG. 9. […] Automated exposure times for each plate were determined by setting a target saturation of 25% in channel 1 in wells containing tetracycline-induced delta-E cells. Detected cells were gated according to nuclear area, length-to-width ratio, and perimeter-to-area ratio. […] EGFP fluorescence (Ch2: excitation 488 nm; emission 509 nm) was used for puncta detection. Automated exposure times for each plate were determined by setting a target saturation of 35% in channel 2 in wells containing induced delta-E cells. […]

For assay [2], the system named is delta-E Torsin1a localization. The assay can be described thus: Delta-E Torsin1a mislocalization assay (% cells with EGFP puncta, high-content imaging). It counts as cell-based, human. Particulars: single concentration: MG132 10 μM, PBA 20 mM.
Assay [3] concerns striatal mGluR5 LTD. The assay can be described thus: Long-term depression in cortico-striatal synapse, acute brain slices of WT mice. Particulars: pre-incubation 5 nM, 1 hr. It counts as cell-based. As for the experimental part:
as §1, §2, §3

Regarding `O=C(/C=C/c1ccccc1)NC(NC(=S)Nc1ccc(Cl)cc1)C(Cl)(Cl)Cl` (centres unmarked) [Sal-003], the “effect on LTD in brain slices heterozygous for the DYT1 knockin mutation (delGAG)” value with striatal mGluR5 LTD [1] is listed as “restored long-term depression”.

Regarding `O=C(O)CCCc1ccccc1` [PBA, phenylbutyric acid], the “percentage of cells with punctate EGFP-Torsin1a signal, WT cell line” value in the assay with WT Torsin1a localization is listed as “ameliorated the burden of cells with punctate pathology”. In assay [2], the “percentage of cells with punctate EGFP-Torsin1a signal, delta-E cell line” value is recorded as “ameliorated the burden of cells with punctate pathology”.

`O=C(COc1ccc(Cl)cc1)NC1CCC(NC(=O)COc2ccc(Cl)cc2)CC1` (centres unmarked) [ISRIB]: in the assay with WT Torsin1a localization (WT cell line), the “Torsin1a expression levels, in words” value is “without effects on Torsin1a expression levels”. The “effect on WT Torsin1a localization (cells with puncta), in words” value in the assay on WT Torsin1a localization (dose response, WT cell line) was “dose-dependent increase in cells with punctate Torsin1a localization”. For the same compound, the “effect on LTD in WT brain slices” value in the assay on striatal mGluR5 LTD [3] is given as “robustly inhibited LTD”.

Consider `CC(C)C[C@@H](C=O)NC(=O)[C@H](CC(C)C)NC(=O)[C@H](CC(C)C)NC(=O)OCc1ccccc1` [MG132] (Cbz-Leu-Leu-Leu-aldehyde), for which the “percentage of cells with punctate EGFP-Torsin1a signal, WT cell line” value with WT Torsin1a localization is given as “significantly increased”. The “percentage of cells with punctate EGFP-Torsin1a signal, delta-E cell line” value in assay [2] is on record as “significantly increased”.
